In PubChem BioAssay (NCI):
“And” between values parts separate entries of the source, which are not always exact repeats. Equal entries are not always repeated.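 Cells were grown in 96-well plates and exposed to each compound for 48 hours at five concentrations; endpoints were interpolated linearly between bracketing concentrations, or set to the highest concentration if not reached. Abbreviation: GI50, concentration required for 50% inhibition of growth. TGI denotes the concentration required for complete inhibition of growth.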

Tests used:
Assay in all cases: NCI tumour cell line growth inhibition, 48 h
PC-3 prostate = system: PC-3 prostate
UO-31 renal = system: UO-31 renal
UACC-257 melanoma = system: UACC-257 melanoma
786-0 renal = system: 786-0 renal
A498 renal = system: A498 renal
HS 578T breast = system: HS 578T breast
NCI-H460 lung = system: NCI-H460 lung
MDA-MB-435 = system: MDA-MB-435
RXF 393 renal = system: RXF 393 renal
CCRF-CEM leukemia = system: CCRF-CEM leukemia
NCI-H226 lung = system: NCI-H226 lung
OVCAR-3 ovarian = system: OVCAR-3 ovarian
HOP-62 NSCLC = system: HOP-62 NSCLC
BT-549 breast = system: BT-549 breast
SK-MEL-5 melanoma = system: SK-MEL-5 melanoma
MDA-MB-231 breast = system: MDA-MB-231 breast
OVCAR-4 ovarian = system: OVCAR-4 ovarian
SNB-19 CNS = system: SNB-19 CNS
DU-145 prostate = system: DU-145 prostate
NCI-H522 lung = system: NCI-H522 lung
M14 melanoma = system: M14 melanoma
SK-OV-3 ovarian = system: SK-OV-3 ovarian
SN12C renal = system: SN12C renal
SF-539 CNS = system: SF-539 CNS
HCT-116 colon = system: HCT-116 colon
SF-295 CNS = system: SF-295 CNS
IGROV1 ovarian = system: IGROV1 ovarian
MALME-3M melanoma = system: MALME-3M melanoma
LOX IMVI melanoma = system: LOX IMVI melanoma
SF-268 CNS = system: SF-268 CNS
U251 CNS = system: U251 CNS
CAKI-1 renal = system: CAKI-1 renal
KM12 colon = system: KM12 colon
EKVX NSCLC = system: EKVX NSCLC
RPMI-8226 leukemia = system: RPMI-8226 leukemia
HCC-2998 colon = system: HCC-2998 colon
MOLT-4 leukemia = system: MOLT-4 leukemia
T-47D breast = system: T-47D breast
TK-10 renal = system: TK-10 renal
A549 NSCLC = system: A549 NSCLC
OVCAR-5 ovarian = system: OVCAR-5 ovarian
UACC-62 melanoma = system: UACC-62 melanoma
OVCAR-8 ovarian = system: OVCAR-8 ovarian
SW-620 colon = system: SW-620 colon
COLO 205 colon = system: COLO 205 colon
MCF7 breast = system: MCF7 breast
HT29 colon = system: HT29 colon
ACHN renal = system: ACHN renal
SNB-75 CNS = system: SNB-75 CNS
NCI/ADR-RES ovarian = system: NCI/ADR-RES ovarian
HCT-15 colon = system: HCT-15 colon
NCI-H23 lung = system: NCI-H23 lung
SR leukemia = system: SR leukemia
MDA-N = system: MDA-N
K-562 leukemia = system: K-562 leukemia
HOP-92 NSCLC = system: HOP-92 NSCLC
SK-MEL-28 melanoma = system: SK-MEL-28 melanoma
HL-60(TB) leukemia = system: HL-60(TB) leukemia
SK-MEL-2 melanoma = system: SK-MEL-2 melanoma
DMS 114 small cell lung = system: DMS 114 small cell lung
DLD-1 colon = system: DLD-1 colon
M19-MEL melanoma = system: M19-MEL melanoma
HOP-18 NSCLC = system: HOP-18 NSCLC
DMS 273 small cell lung = system: DMS 273 small cell lung
SNB-78 CNS = system: SNB-78 CNS
LXFL 529 NSCLC = system: LXFL 529 NSCLC
XF 498 CNS = system: XF 498 CNS
KM20L2 colon = system: KM20L2 colon

Compound: CN(C)CC/C=C1\c2ccccc2Sc2ccc(Cl)cc21
- GI50 (PC-3 prostate): 3.03 µM
- TGI (PC-3 prostate): 12.5 µM and 26 µM
- GI50 (UO-31 renal): 2.96 µM
- TGI (UO-31 renal): 15.6 µM and 21.5 µM
- GI50 (UACC-257 melanoma): 1.49 µM
- TGI (UACC-257 melanoma): 3.11 µM and 20.6 µM
- GI50 (786-0 renal): 2.5 µM
- TGI (786-0 renal): 6.88 µM and 25.6 µM
- GI50 (A498 renal): 3.02 µM
- TGI (A498 renal): 14.1 µM and 28 µM
- GI50 (HS 578T breast): 2.99 µM
- TGI (HS 578T breast): 15.1 µM and 37 µM
- GI50 (NCI-H460 lung): 2.02 µM
- TGI (NCI-H460 lung): 3.95 µM and 28.8 µM
- GI50 (MDA-MB-435): 1.77 µM
- TGI (MDA-MB-435): 4.03 µM and 23.1 µM
- GI50 (RXF 393 renal): 1.86 µM
- TGI (RXF 393 renal): 5.59 µM and 28.3 µM
- GI50 (CCRF-CEM leukemia): 3.36 µM
- TGI (CCRF-CEM leukemia): 15.4 µM and 25.2 µM
- GI50 (NCI-H226 lung): 2.45 µM
- TGI (NCI-H226 lung): 9.11 µM and 38 µM
- GI50 (OVCAR-3 ovarian): 3.99 µM
- TGI (OVCAR-3 ovarian): 13.5 µM and 26.8 µM
- GI50 (HOP-62 NSCLC): 1.94 µM
- TGI (HOP-62 NSCLC): 5.44 µM and 28 µM
- GI50 (BT-549 breast): 4.91 µM
- TGI (BT-549 breast): 17.4 µM and 29.2 µM
- GI50 (SK-MEL-5 melanoma): 1.62 µM
- TGI (SK-MEL-5 melanoma): 3 µM and 28.6 µM
- GI50 (MDA-MB-231 breast): 2.12 µM
- TGI (MDA-MB-231 breast): 9.32 µM and 28.3 µM
- GI50 (OVCAR-4 ovarian): 3.72 µM
- TGI (OVCAR-4 ovarian): 13.9 µM and 28.5 µM
- GI50 (SNB-19 CNS): 2.62 µM
- TGI (SNB-19 CNS): 10.6 µM and 29.9 µM
- GI50 (DU-145 prostate): 6.38 µM
- TGI (DU-145 prostate): 18.6 µM and 29.7 µM
- GI50 (NCI-H522 lung): 1.67 µM
- TGI (NCI-H522 lung): 3.23 µM and 29.1 µM
- GI50 (M14 melanoma): 1.87 µM
- TGI (M14 melanoma): 3.58 µM and 11.4 µM
- GI50 (SK-OV-3 ovarian): 1.99 µM
- TGI (SK-OV-3 ovarian): 5 µM and 30.7 µM
- GI50 (SN12C renal): 2.84 µM
- TGI (SN12C renal): 13.7 µM and 29.9 µM
- GI50 (SF-539 CNS): 3.61 µM
- TGI (SF-539 CNS): 11.2 µM and 36.2 µM
- GI50 (HCT-116 colon): 2.4 µM
- TGI (HCT-116 colon): 6.13 µM and 24.4 µM
- GI50 (SF-295 CNS): 1.78 µM
- TGI (SF-295 CNS): 4.09 µM and 29.7 µM
- GI50 (IGROV1 ovarian): 3.24 µM
- TGI (IGROV1 ovarian): 11.3 µM and 26.3 µM
- GI50 (MALME-3M melanoma): 1.71 µM
- TGI (MALME-3M melanoma): 3.47 µM and 28 µM
- GI50 (LOX IMVI melanoma): 1.57 µM
- GI50 (SF-268 CNS): 3.78 µM
- TGI (SF-268 CNS): 14.1 µM and 30.1 µM
- GI50 (U251 CNS): 1.92 µM
- TGI (U251 CNS): 4.66 µM and 26.9 µM
- GI50 (CAKI-1 renal): 2.56 µM
- TGI (CAKI-1 renal): 11.4 µM and 21.4 µM
- GI50 (KM12 colon): 2.54 µM
- TGI (KM12 colon): 6.08 µM and 37.9 µM
- GI50 (EKVX NSCLC): 6.47 µM
- TGI (EKVX NSCLC): 22.3 µM and 22.8 µM
- GI50 (RPMI-8226 leukemia): 2.69 µM
- TGI (RPMI-8226 leukemia): 9.19 µM and 17.2 µM
- GI50 (HCC-2998 colon): 1.68 µM
- TGI (HCC-2998 colon): 3.43 µM and 4.76 µM
- GI50 (MOLT-4 leukemia): 3.44 µM
- TGI (MOLT-4 leukemia): 9.98 µM and 25.9 µM
- GI50 (T-47D breast): 1.46 µM
- GI50 (TK-10 renal): 1.91 µM
- TGI (TK-10 renal): 3.95 µM and 28.3 µM
- GI50 (A549 NSCLC): 2.87 µM
- TGI (A549 NSCLC): 11.4 µM and 28.9 µM
- GI50 (OVCAR-5 ovarian): 4.61 µM
- TGI (OVCAR-5 ovarian): 17.9 µM and 27.8 µM
- GI50 (UACC-62 melanoma): 1.51 µM
- TGI (UACC-62 melanoma): 3.09 µM and 26.7 µM
- GI50 (OVCAR-8 ovarian): 1.99 µM
- TGI (OVCAR-8 ovarian): 4.44 µM and 32.8 µM
- GI50 (SW-620 colon): 2.18 µM
- TGI (SW-620 colon): 5.4 µM and 35.4 µM
- GI50 (COLO 205 colon): 1.54 µM
- GI50 (MCF7 breast): 1.81 µM
- TGI (MCF7 breast): 3.37 µM and 30.3 µM
- GI50 (HT29 colon): 1.98 µM
- TGI (HT29 colon): 3.96 µM and 16.4 µM
- GI50 (ACHN renal): 3.61 µM
- TGI (ACHN renal): 14.4 µM and 29.6 µM
- GI50 (SNB-75 CNS): 2.46 µM
- TGI (SNB-75 CNS): 7.61 µM and 25.2 µM
- GI50 (NCI/ADR-RES ovarian): 2.42 µM
- TGI (NCI/ADR-RES ovarian): 8.24 µM and 30.8 µM
- GI50 (HCT-15 colon): 3.79 µM
- TGI (HCT-15 colon): 14 µM and 30.6 µM
- GI50 (NCI-H23 lung): 3.52 µM
- TGI (NCI-H23 lung): 15.7 µM and 31.3 µM
- GI50 (SR leukemia): 3.29 µM
- TGI (SR leukemia): 8.76 µM
- TGI (MDA-N): 26.1 µM
- GI50 (K-562 leukemia): 2.43 µM
- TGI (K-562 leukemia): 4.71 µM and 18.7 µM
- GI50 (HOP-92 NSCLC): 0.379 µM
- TGI (HOP-92 NSCLC): 3.39 µM and 18.7 µM
- GI50 (SK-MEL-28 melanoma): 1.74 µM
- TGI (SK-MEL-28 melanoma): 3.11 µM and 20.2 µM
- GI50 (HL-60(TB) leukemia): 4.46 µM
- TGI (HL-60(TB) leukemia): 13.7 µM and 27.7 µM
- GI50 (SK-MEL-2 melanoma): 1.95 µM
- TGI (SK-MEL-2 melanoma): 3.71 µM and 31.7 µM

Compound: Cc1cc(N(CCC#N)CCC#N)ccc1/C=C1/CN(N2C(=O)/C(=C/c3ccc(N(CCC#N)CCC#N)cc3C)N=C2c2ccccc2)C(c2ccccc2)=N1
- TGI (UO-31 renal): > 100 µM
- TGI (UACC-257 melanoma): > 100 µM
- TGI (DMS 114 small cell lung): > 100 µM
- TGI (786-0 renal): > 100 µM
- TGI (A498 renal): > 100 µM
- TGI (DLD-1 colon): > 100 µM
- TGI (NCI-H460 lung): > 100 µM
- TGI (RXF 393 renal): 76.8 µM
- TGI (CCRF-CEM leukemia): > 100 µM
- TGI (NCI-H226 lung): > 100 µM
- TGI (OVCAR-3 ovarian): > 100 µM
- TGI (HOP-62 NSCLC): > 100 µM
- TGI (SK-MEL-5 melanoma): > 100 µM
- TGI (OVCAR-4 ovarian): > 100 µM
- TGI (SNB-19 CNS): > 100 µM
- TGI (NCI-H522 lung): > 100 µM
- TGI (M14 melanoma): > 100 µM
- TGI (SN12C renal): > 100 µM
- TGI (SF-539 CNS): > 100 µM
- TGI (HCT-116 colon): > 100 µM
- TGI (SF-295 CNS): > 100 µM
- TGI (IGROV1 ovarian): > 100 µM
- TGI (MALME-3M melanoma): > 100 µM
- TGI (LOX IMVI melanoma): > 100 µM
- TGI (SF-268 CNS): > 100 µM
- TGI (U251 CNS): > 100 µM
- TGI (CAKI-1 renal): > 100 µM
- TGI (KM12 colon): > 100 µM
- TGI (EKVX NSCLC): > 100 µM
- TGI (HCC-2998 colon): > 100 µM
- TGI (MOLT-4 leukemia): > 100 µM
- TGI (TK-10 renal): 75.9 µM
- TGI (M19-MEL melanoma): > 100 µM
- TGI (A549 NSCLC): > 100 µM
- TGI (OVCAR-5 ovarian): > 100 µM
- TGI (UACC-62 melanoma): > 100 µM
- TGI (HOP-18 NSCLC): > 100 µM
- TGI (OVCAR-8 ovarian): > 100 µM
- TGI (SW-620 colon): > 100 µM
- TGI (COLO 205 colon): > 100 µM
- TGI (HT29 colon): > 100 µM
- TGI (DMS 273 small cell lung): > 100 µM
- TGI (ACHN renal): > 100 µM
- TGI (SNB-75 CNS): 51.1 µM
- TGI (HCT-15 colon): > 100 µM
- TGI (NCI-H23 lung): > 100 µM
- TGI (SNB-78 CNS): > 100 µM
- TGI (SR leukemia): > 100 µM
- TGI (LXFL 529 NSCLC): > 100 µM
- TGI (K-562 leukemia): > 100 µM
- TGI (XF 498 CNS): > 100 µM
- TGI (HOP-92 NSCLC): > 100 µM
- TGI (SK-MEL-28 melanoma): > 100 µM
- TGI (HL-60(TB) leukemia): > 100 µM
- TGI (KM20L2 colon): > 100 µM
